Assay results published in patent US20020147136A1, “Compounds for targeting endothelial cells, compositions containing the same and methods for their use” (priority 2000, published 2002).

Key:
NP-1/Fc = test: Inhibition of 125I-VEGF165 binding to NP-1/Fc
Protocol: The ability of various compositions comprising TKPPR monomers or multimers to inhibit ^125I-VEGF binding to NP-1 was evaluated using NP-1/Fc. Competitive binding assays with microtiter plates coated with NP-1/Fc (R&D sytems) were performed using ^125I-VEGF165 as radioligand (Amersham Pharmacia Biotech Cat. No. IM274, Specific Activity: 1000-2500 Ci/mmol). […] Plates (Nunc MaxiSorp white opaque Microtiter plate [C-bottom, 437796]) were coated by incubating the wells with 75 µl of a solution containing 3 μlg/mL NP-1/Fc in D-PBS/0.1% NaAzide overnight at 4° C. after covering with sealing tape (Dynex, VWR Cat. No. 62402-931). […] All points were derived from triplicate wells, and for each set of replicates in NP-1/Fc-coated wells, a companion set in the absence of the receptor was included. For competitive binding, a series of unlabelled competitor concentrations were prepared in a 250 pM solution of ^1251-VEGF165 in assay buffer Solutions were added to 1.2 ml polypropylene tubes conforming to the microtiter format (Costar Cat. No. 29442-602), and transferred from these tubes to microtiter wells, without further dilution, using a multichannel pipettor. After addition of the appropriate solutions, microtiter plates were incubated at 4° C. for 2 hours. […] The plates were blotted dry and 25 μl deionized water and 100 μl scintillation fluid (Optiphase SuperMix, Wallac) were added to each well. Plates were agitated using a Plate Shaker (Hyperion, Cat. No. 4030-100F) for 3-5 minutes and were then counted using a Microplate Scintillation Counter (Wallac Microbeta Trilux) A set of serially diluted 125I-VEGF165 standard wells ranging from 200 to 0.04 pM were included with each experiment to aid in quantification of the amount of radiolabel bound.

KDR-Fc = target: T1, KDR-Fc (Homo sapiens, UniProt P35968); test: Inhibition of 125I-VEGF165 binding to KDR-Fc; conditions: at the highest concentrations tested
T1 construct: purchased R&D Systems

Neuropilin-1/Fc = test: Fluorescence polarization binding to NP-1/Fc; conditions: Oregon Green-labeled ligand 5-20 nM, 37° C., D-PBS pH 7.4; different experiments
Protocol: The ability of various compositions comprising TKPPR monomers or multimers to bind to NP-1/Fc and KDR-Fc was evaluated using FP. The binding studies of various Oregon Green (OG)-labeled compounds comprising TKPPR monomers or multimers and related compounds with Neuropilin-1/Fc, and KDR-Fc (both from R&D Systems), were carried out at 37° C. in D-PBS buffer (pH 7.4). FP values (mP) for each substrate was measured by titrating the ligand (5-20 nM) with receptor protein using a Jolley Research and Consulting FPM-1 fluorescence Polarization analyzer. In each of these experiments the observed polarization values were plotted against receptor concentration. The mP values for 100% binding of tracer labeled ligand to receptor protein was calculated using the software provided by the vendor.

[1] = system: Human Umbilical Vein Endothelial Cells (HUVECS)
Protocol: The ability of compositions comprising a TKPPR monomer and a TKPPR multimer to inhibit ^125I-VEGF binding to endothelial cells was evaluated using HUVECs.

T1 sequence (P35968 with tags, fused parts or gaps limits assumed): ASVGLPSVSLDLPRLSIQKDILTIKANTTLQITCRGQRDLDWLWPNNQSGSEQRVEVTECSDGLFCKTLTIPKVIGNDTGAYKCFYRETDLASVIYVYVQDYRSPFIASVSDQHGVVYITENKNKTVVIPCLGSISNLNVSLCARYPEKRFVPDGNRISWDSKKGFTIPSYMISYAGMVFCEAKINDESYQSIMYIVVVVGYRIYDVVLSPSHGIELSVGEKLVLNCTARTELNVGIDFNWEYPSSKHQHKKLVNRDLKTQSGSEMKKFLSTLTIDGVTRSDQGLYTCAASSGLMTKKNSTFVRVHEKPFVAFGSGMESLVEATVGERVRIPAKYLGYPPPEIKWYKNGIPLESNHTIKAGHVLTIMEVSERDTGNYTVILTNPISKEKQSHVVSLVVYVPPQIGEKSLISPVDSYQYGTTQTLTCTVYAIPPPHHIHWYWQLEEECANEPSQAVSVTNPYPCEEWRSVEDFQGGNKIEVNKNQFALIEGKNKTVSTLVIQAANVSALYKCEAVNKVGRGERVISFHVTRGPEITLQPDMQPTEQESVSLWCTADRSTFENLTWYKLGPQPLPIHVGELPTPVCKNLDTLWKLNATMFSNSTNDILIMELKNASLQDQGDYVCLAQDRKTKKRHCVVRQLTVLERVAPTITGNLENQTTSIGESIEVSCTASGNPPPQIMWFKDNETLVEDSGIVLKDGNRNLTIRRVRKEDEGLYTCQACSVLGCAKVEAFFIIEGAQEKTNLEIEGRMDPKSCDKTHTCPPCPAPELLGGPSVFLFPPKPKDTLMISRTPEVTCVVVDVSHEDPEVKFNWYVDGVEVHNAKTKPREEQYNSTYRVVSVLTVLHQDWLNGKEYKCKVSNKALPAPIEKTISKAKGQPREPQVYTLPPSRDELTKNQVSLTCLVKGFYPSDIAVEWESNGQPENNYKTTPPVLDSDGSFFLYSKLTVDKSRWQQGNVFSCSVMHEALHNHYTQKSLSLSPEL

fold more potent than the monomer (NP-1/Fc): 230 to 330 fold | IC50 (NP-1/Fc; 250 pM 125I-VEGF165, 4° C., 2 hours): 130 nM | inhibition of 125I-VEGF165 binding to KDR (KDR-Fc): none | Kd (Neuropilin-1/Fc): 25 to 50 nM
SMILES: C/C(=N\O)C(C)(C)NOCCNC(C)(C)/C(CCNC(=O)CCCCCC(=O)NCC(=O)N(CCC(=O)NCC(=O)N(CCC(=O)NCCOCCOCC(=O)N[C@H](C(=O)N[C@@H](CCCCN)C(=O)N1CCC[C@H]1C(=O)N1CCC[C@H]1C(=O)N[C@@H](CCCNC(=N)N)C(=O)O)[C@@H](C)O)CCC(=O)NCCOCCOCC(=O)N[C@H](C(=O)N[C@@H](CCCCN)C(=O)N1CCC[C@H]1C(=O)N1CCC[C@H]1C(=O)N[C@@H](CCCNC(=N)N)C(=O)O)[C@@H](C)O)CCC(=O)NCC(=O)N(CCC(=O)NCCOCCOCC(=O)N[C@H](C(=O)N[C@@H](CCCCN)C(=O)N1CCC[C@H]1C(=O)N1CCC[C@H]1C(=O)N[C@@H](CCCNC(=N)N)C(=O)O)[C@@H](C)O)CCC(=O)NCCOCCOCC(=O)N[C@H](C(=O)N[C@@H](CCCCN)C(=O)N1CCC[C@H]1C(=O)N1CCC[C@H]1C(=O)N[C@@H](CCCNC(=N)N)C(=O)O)[C@@H](C)O)=N/O [BRU-326]
IC50 [1]: 10000 nM
